Laboratory results published in patent US7795305B2, “CDDO-compounds and combination therapies thereof” (Board of Regents, The University of Texas System, priority 2000, dated 2010).

Tests used:
AML CD34+ cells = experiment: Fas expression in primary AML CD34+ cells; type: cell-based, human
Protocol: Immunophenotyping. The PE-conjugated anti-CD11b, FITC-conjugated anti-CD14 monoclonal antibody (mAb) (Becton Dickinson) and PE-conjugated anti-CD95 mAb (PharMingen) were used at a 1/10 dilution. The percentage of positive cells was calculated by subtracting the percentage of cells with a fluorescence intensity greater than the set marker using the isotype control (background) from the percentage of cells with a fluorescence intensity greater than the same marker using the specific antibody.
Mechanisms of CDDO-induced apoptosis in leukemia cell lines and in primary AML samples were also determined. The involvement of the death receptor/Fas pathway was studied in NB4 cells. Treatment with 0.5 μM CDDO induced cell surface Fas/CD95 expression at 48 hours (MFI 34.8 vs 24.8 in DMSO-treated cells and 26 in untreated control). At this concentration, 22.3% of cells were annexin V positive compared with 11.4% in DMSO-controls. At 1 μM, 56.3% of cells were apoptotic. Similarly, 1 μM CDDO induced Fas expression in 7/12 AML CD34+ cells (MFI, 22.3±3.5 in DMSO-controls, 40±4.3 in CDDO-treated CD34+ cells, p<0.01).

[1] = Murine model of angiogenesis, invasion promoted by ALL BM plasma; type: in vivo; settings: 0.5 μM, n=8
Protocol: CDDO-Me. The formation of tube-like endothelial structures that are associated with angiogenesis was analyzed using a Matrigel system (Kubota et al., 1988). Capillary-like structure formation of bone marrow endothelium was inhibited by CDDO-Me. […] Furthermore, in a murine model of angiogenesis, angiogenic invasion promoted by ALL BM plasma was abrogated by CDDO-Me at 0.5 μM (n=8). Thus, CDDO-Me also has anti-angiogenic effects.

CML-blast crisis samples = experiment: Apoptosis and differentiation in CML-blast crisis samples in vitro; type: cell-based, human
From the text: Subjects. Samples of bone marrow or peripheral blood were obtained for in vitro studies from patients with newly diagnosed or recurrent AML with high (>70%) blast count and from patients with myeloid transformation of chronic myeloid leukemia (CML). Informed consent was obtained following institutional guidelines. Mononuclear cells were separated by Ficoll-Hypaque (Sigma Chemical Co) density-gradient centrifugation.
CDDO-Me. In primary AML, CDDO-Me induced apoptotic cell death in a dose-dependent fashion as determined by DNA flow cytometry (subG1): at 1 μM CDDO-Me, apoptosis was induced in 5 of 6 AML samples in vitro, and 5 μM induced apoptosis in 6 of 6 samples. More than 90% apoptotic cells were detected in 4/6 samples following exposure to 5 μM of CDDO-Me (FIG. 21A). At lower concentrations, CDDO-Me induced a dose-dependent increase in the percentage of the apoptotic cells in 4/4 samples tested (FIG. 21B). The paired mean difference between the CDDO-Me 0.1 μM and DMSO control is 26.9%±10.8% (CDDO-Me-DMSO, mean±SEM); and the paired mean difference between the CDDO-Me 0.5 μM and DMSO is 43.2%±5.2%. […] Effects of CDDO-Me were also tested on clonogenic AML cells. […] In contrast, 79±5.6% and 63.4±1.1% CFU-GM generated from normal CD34* cells were detected after 0.1 and 0.5 μM of CDDO-Me treatment (n=3).

Row | SMILES | AML samples with induced Fas expression in CD34+ cells (AML CD34+ cells; 1 μM) | Fas expression, MFI (AML CD34+ cells; 1 μM (22.3±3.5 in DMSO-controls)) | angiogenic invasion promoted by ALL BM plasma [1] | CML-blast crisis samples in which apoptosis was induced (CML-blast crisis samples; 1 μM) | CML-blast crisis samples in which apoptosis was induced (CML-blast crisis samples; 5 μM)
1 | CC1(C)CCC2(C(=O)O)CCC3(C)C(C(=O)C=C4C5(C)C=C(C#N)C(=O)C(C)(C)C5CCC43C)C2C1 (centres unmarked) [CDDO, 2-cyano-3,12-dioxoolen-1,9-dien-28-oic acid] | 7/12 | 40±4.3 |  |  | 
2 | COC(=O)[C@]12CCC(C)(C)C[C@H]1[C@H]1C(=O)C=C3[C@@]4(C)C=C(C#N)C(=O)C(C)(C)[C@@H]4CC[C@@]3(C)[C@]1(C)CC2 [CDDO-Me] |  |  | abrogated | 3 of 4 | 4 of 4
